“And” between values parts separate entries of the source, which are not always exact repeats. Equal entries are not always repeated.
Tested on: 817829-284-R-J1-PDC complex spheroids, viability
Assay: Anticancer human tumor 817829-284-R-J1-PDC patient-derived colon adenocarcinoma cell line growth inhibition [CLK]
Details: for viability, T/C: stronger effect = lower value; active means viability on the fitted dose curve at most 10% of control; inactive means the rest
Procedure, shortened: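 Patient-derived tumor cells grown as complex spheroids with HUVEC endothelial cells and mesenchymal stem cells, treated with drug combinations. Concentrations descend in half-log steps from near clinical Cmax, or from 10 microM if Cmax unknown.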

[1] = curve of first compound, second compound 0.0316 µM
[2] = curve of first compound, second compound 0.1 µM
[3] = curve of first compound, second compound 0.316 µM
[4] = curve of first compound, second compound 1 µM
[5] = curve of first compound, second compound 3.16 µM
[6] = curve of first compound, second compound 10 µM
[7] = second compound 0.0316 µM, first compound 0.0316 µM
[8] = second compound 0.0316 µM, first compound 0.1 µM
[9] = second compound 0.0316 µM, first compound 0.316 µM
[10] = second compound 0.0316 µM, first compound 1 µM
[11] = second compound 0.0316 µM, first compound 3.16 µM
[12] = second compound 0.0316 µM, first compound 10 µM
[13] = second compound 0.1 µM, first compound 0.0316 µM
[14] = second compound 0.1 µM, first compound 0.1 µM
[15] = second compound 0.1 µM, first compound 0.316 µM
[16] = second compound 0.1 µM, first compound 1 µM
[17] = second compound 0.1 µM, first compound 3.16 µM
[18] = second compound 0.1 µM, first compound 10 µM
[19] = second compound 0.316 µM, first compound 0.0316 µM
[20] = second compound 0.316 µM, first compound 0.1 µM
[21] = second compound 0.316 µM, first compound 0.316 µM
[22] = second compound 0.316 µM, first compound 1 µM
[23] = second compound 0.316 µM, first compound 3.16 µM
[24] = second compound 0.316 µM, first compound 10 µM
[25] = second compound 1 µM, first compound 0.0316 µM
[26] = second compound 1 µM, first compound 0.1 µM
[27] = second compound 1 µM, first compound 0.316 µM
[28] = second compound 1 µM, first compound 1 µM
[29] = second compound 1 µM, first compound 3.16 µM
[30] = second compound 1 µM, first compound 10 µM
[31] = second compound 3.16 µM, first compound 0.0316 µM
[32] = second compound 3.16 µM, first compound 0.1 µM
[33] = second compound 3.16 µM, first compound 0.316 µM
[34] = second compound 3.16 µM, first compound 1 µM
[35] = second compound 3.16 µM, first compound 3.16 µM
[36] = second compound 3.16 µM, first compound 10 µM
[37] = second compound 10 µM, first compound 0.0316 µM
[38] = second compound 10 µM, first compound 0.1 µM
[39] = second compound 10 µM, first compound 0.316 µM
[40] = second compound 10 µM, first compound 1 µM
[41] = second compound 10 µM, first compound 3.16 µM
[42] = second compound 10 µM, first compound 10 µM
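Further: spheroids exposed to the agents for seven days before readout.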

C=CC(=O)N1CCN(c2nc(=O)n(-c3c(C)ccnc3C(C)C)c3nc(-c4c(O)cccc4F)c(F)cc23)C(C)C1 (configuration not stated) + CNC(=O)c1ccc(Nc2nc(OC3CCCC3)c3c(-c4ccc5nc(C)oc5c4)c[nH]c3n2)c(OC)c1
< 31.6 nM: IC50 [1] | IC50 [2] | IC50 [3] | IC50 [4] | IC50 [5] | IC50 [6]
inactive: viability, T/C [7] 35.9% | viability, T/C [8] 44.3% | viability, T/C [9] 34.6% | viability, T/C [10] 24.2% | viability, T/C [11] 25.9% | viability, T/C [12] 15% | viability, T/C [13] 30.9% | viability, T/C [14] 22.7% | viability, T/C [15] 30.4% | viability, T/C [16] 25.1% | viability, T/C [17] 22.2% | viability, T/C [18] 22.9% | viability, T/C [19] 28.8% | viability, T/C [20] 35.2% | viability, T/C [21] 30.8% | viability, T/C [22] 22.8% | viability, T/C [23] 31.2% | viability, T/C [24] 17.4% | viability, T/C [25] 22.3% | viability, T/C [26] 20.8% | viability, T/C [27] 18.2% | viability, T/C [28] 19.8% | viability, T/C [29] 20% | viability, T/C [30] 12.4% | viability, T/C [31] 22.4% | viability, T/C [32] 25.8% | viability, T/C [33] 15.9% | viability, T/C [34] 22.2% | viability, T/C [35] 23.5% | viability, T/C [36] 10.6% | viability, T/C [37] 27.2% | viability, T/C [38] 23.3% | viability, T/C [39] 22% | viability, T/C [40] 27.3% | viability, T/C [41] 19.1% | viability, T/C [42] 12%

CC1COCCN1c1cc(C2(S(C)(=N)=O)CC2)nc(-c2ccnc3[nH]ccc23)n1 (configuration not stated) + CN1CCN(c2cc(C(=O)Nc3cc4cc(-c5cnn(C)c5)ccc4cn3)ccn2)CC1
inactive: viability, T/C [7] 57.2% | viability, T/C [8] 48.3% | viability, T/C [9] 34.6% | viability, T/C [10] 20.3% | viability, T/C [13] 14.8% | viability, T/C [14] 15.1% | viability, T/C [15] 11.9%
active: viability, T/C [11] 6.12% | viability, T/C [12] 3.77% | viability, T/C [16] 8.16% | viability, T/C [17] 4.67% | viability, T/C [18] 3.28% | viability, T/C [19] 1.94% | viability, T/C [20] 2.26% | viability, T/C [21] 1.9% | viability, T/C [22] 2.08% | viability, T/C [23] 1.38% | viability, T/C [24] 0.6% | viability, T/C [25] 0.08% | viability, T/C [26] 0.15% | viability, T/C [27] 0.11% | viability, T/C [28] 0.08% | viability, T/C [29] 0.07% | viability, T/C [30] 0.08% | viability, T/C [31] 0.53% | viability, T/C [32] 0.17% | viability, T/C [33] 0.15% | viability, T/C [34] 0.14% | viability, T/C [35] 0.14% | viability, T/C [36] 0.1% | viability, T/C [37] 0.09% | viability, T/C [38] 0.12% | viability, T/C [39] 0.13% | viability, T/C [40] 0.13% | viability, T/C [41] 0.15% | viability, T/C [42] 0.14%
84.3 nM: IC50 [1]
< 31.6 nM: IC50 [2] | IC50 [3] | IC50 [4] | IC50 [5] | IC50 [6]

C=CC(=O)Nc1cc(Nc2nccc(-c3cn(C)c4ccccc34)n2)c(OC)cc1N(C)CCN(C)C
> 300 nM: IC50 (curve of compound)
inactive: viability, T/C (compound 0.000949 µM) 108% | viability, T/C (compound 0.003 µM) 101% | viability, T/C (compound 0.00949 µM) 85.9% | viability, T/C (compound 0.03 µM) 72.9% | viability, T/C (compound 0.0949 µM) 99.5% | viability, T/C (compound 0.3 µM) 73.8%

CC(=O)O[C@H]1C(=O)[C@@]2(C)[C@H]([C@H](OC(=O)c3ccccc3)[C@]3(O)C[C@H](OC(=O)[C@H](O)[C@@H](NC(=O)c4ccccc4)c4ccccc4)C(C)=C1C3(C)C)[C@]1(OC(C)=O)CO[C@@H]1C[C@@H]2O + CNC(=O)c1ccc(Nc2nc(OC3CCCC3)c3c(-c4ccc5nc(C)oc5c4)c[nH]c3n2)c(OC)c1
< 31.6 nM: IC50 [1] | IC50 [2] | IC50 [3] | IC50 [4] | IC50 [5] | IC50 [6]
inactive: viability, T/C [7] 10.8% | viability, T/C [8] 11.5% | viability, T/C [9] 10.8% | viability, T/C [10] 10.6% | viability, T/C [11] 11.6% | viability, T/C [12] 16.2% | viability, T/C [13] 24.2% | viability, T/C [14] 25.3% | viability, T/C [15] 20.2% | viability, T/C [16] 23.8% | viability, T/C [17] 28.9% | viability, T/C [18] 26.8% | viability, T/C [19] 29.5% | viability, T/C [20] 31.6% | viability, T/C [21] 43.8% | viability, T/C [22] 38.9% | viability, T/C [23] 45.1% | viability, T/C [24] 32.6% | viability, T/C [25] 31.7% | viability, T/C [26] 23.7% | viability, T/C [27] 24% | viability, T/C [28] 30.4% | viability, T/C [29] 22.6% | viability, T/C [30] 22.8% | viability, T/C [31] 26.2% | viability, T/C [32] 23.9% | viability, T/C [33] 17.7% | viability, T/C [34] 20.1% | viability, T/C [35] 23.3% | viability, T/C [36] 23.3% | viability, T/C [37] 18.6% | viability, T/C [38] 23.3% | viability, T/C [39] 29.5% | viability, T/C [40] 24.3% | viability, T/C [41] 20.5% | viability, T/C [42] 19.9%

CCc1c2c(nc3ccc(O)cc13)-c1cc3c(c(=O)n1C2)COC(=O)[C@]3(O)CC
< 3.16 nM: IC50 (curve of compound)
inactive: viability, T/C (compound 0.00316 µM) 23.1% and 29.4% | viability, T/C (compound 0.01 µM) 17.5% and 16.5% | viability, T/C (compound 0.0316 µM) 13.9% and 16.5%
active: viability, T/C (compound 0.1 µM) 9.42% and 10.3% | viability, T/C (compound 0.316 µM) 6.24% and 7.57% | viability, T/C (compound 1 µM) 3.66% and 4.31%

O=C(c1cc(Cc2n[nH]c(=O)c3ccccc23)ccc1F)N1CCN(C(=O)C2CC2)CC1
inactive: viability, T/C (compound 0.0316 µM) 87.7% and 101% | viability, T/C (compound 0.1 µM) 89% and 107% | viability, T/C (compound 0.316 µM) 81.1% and 74.2% | viability, T/C (compound 1 µM) 70.4% and 86.8% | viability, T/C (compound 3.16 µM) 52.5% and 54% | viability, T/C (compound 10 µM) 34.7% and 36.2%
3680 nM and 4810 nM: IC50 (curve of compound)
